Measurements from patent US20110257013A1, “METHOD FOR CONTROLLING FLOWERING TIME OF PLANT” (SUMITOMO CHEMICAL COMPANY, LIMITED, priority 2008, published 2011).

Test system: recombinant Arabidopsis thaliana
Test: Flowering induction in recombinant Arabidopsis thaliana
Type: in vivo
Details: Arabidopsis with vector (e); 50 μM CuSO4 medium for six hours; observed five days after treatment; compared to non-inducible group
Procedure: The vector (e) prepared in Example 1 was introduced into Agrobacterium (Agrobacterium tumefaciens strain C58C1). The resulting Agrobacterium was cultured in a LB agar medium (0.5% yeast extract, 1.0% bactotrypton, 0.5% saline, 1% agar) containing 50 mg/L kanamycin, 100 mg/L ampicillin, and 100 mg/L rifampicin, and a drug-resistant colony was selected to obtain recombinant Agrobacterium. Arabidopsis (Arabidopsis thaliana ecotype Columbia) was infected by the obtained recombinant Agrobacterium according to the method described in Model Plant Laboratory Manual (edited by Iwabuchi Masaki et al, 2000, Springer-Verlag Tokyo Co., Ltd., ISBN 4-431-70881-2 C3045) to introduce genes. After T1 seeds collected from the Arabidopsis subjected to gene introduction, the seeds were plated and grown on a modified MS agar medium (MS inorganic salts, B5 vitamin, 1% sucrose, 0.8% agar) containing 20 mg/L of Benlate, 200 mg/L of Claforan, and 25 mg/L kanamycin to select a plant individual resistant to kanamycin. The selected plant individual was transplanted to a pot in which culture soil was previously placed, and grown in an artificial weather chamber to obtain T2 seeds. […]

## O=S(=O)([O-])[O-].[Cu+2] [CuSO4]
  flowering time: flowering was induced earlier
